Assay: xn = mol fraction of the nth substance listed
Details: Liquid, Vibrating tube method

CCCCCCCCCC [decane] + CCCCCCC
Details	mass density [kg/m3]
313.18 K, 10000 kPa, x2 = 0.5219	703.05
313.18 K, 10000 kPa, x2 = 0.777	690.24
313.18 K, 10990 kPa, x2 = 0.5219	703.9
313.18 K, 10990 kPa, x2 = 0.777	691.12
313.18 K, 12000 kPa, x2 = 0.5219	704.76
313.18 K, 12000 kPa, x2 = 0.777	692.05
313.18 K, 13000 kPa, x2 = 0.5219	705.6
313.18 K, 13000 kPa, x2 = 0.777	692.92
313.18 K, 14000 kPa, x2 = 0.5219	706.44
313.18 K, 14000 kPa, x2 = 0.777	693.78
313.18 K, 15000 kPa, x2 = 0.5219	707.25
313.18 K, 15000 kPa, x2 = 0.777	694.64
313.18 K, 16000 kPa, x2 = 0.5219	708.05
313.18 K, 16000 kPa, x2 = 0.777	695.5
313.18 K, 17000 kPa, x2 = 0.5219	708.84
313.18 K, 17000 kPa, x2 = 0.777	696.33
313.18 K, 18000 kPa, x2 = 0.5219	709.64
313.18 K, 18000 kPa, x2 = 0.777	697.16
313.18 K, 19000 kPa, x2 = 0.5219	710.37
313.18 K, 19000 kPa, x2 = 0.777	697.97
313.18 K, 20000 kPa, x2 = 0.5219	711.12
313.18 K, 20000 kPa, x2 = 0.777	698.77
313.18 K, 21000 kPa, x2 = 0.5219	711.85
313.18 K, 21000 kPa, x2 = 0.777	699.55
313.18 K, 22000 kPa, x2 = 0.5219	712.53
313.18 K, 22000 kPa, x2 = 0.777	700.31
313.18 K, 23000 kPa, x2 = 0.5219	713.24
313.18 K, 23000 kPa, x2 = 0.777	701
313.18 K, 24000 kPa, x2 = 0.5219	713.92
313.18 K, 24000 kPa, x2 = 0.777	701.71
313.18 K, 25000 kPa, x2 = 0.5219	714.55
313.18 K, 25000 kPa, x2 = 0.777	702.37
323.14 K, 1000 kPa, x2 = 0.5219	687.21
323.14 K, 1000 kPa, x2 = 0.952	662.62
323.14 K, 2000 kPa, x2 = 0.5219	688.12
323.14 K, 2000 kPa, x2 = 0.952	663.72
323.14 K, 3000 kPa, x2 = 0.5219	689.02
323.14 K, 3000 kPa, x2 = 0.952	664.82
323.14 K, 4000 kPa, x2 = 0.5219	689.95
323.14 K, 4000 kPa, x2 = 0.952	665.9
323.14 K, 5000 kPa, x2 = 0.5219	690.88
323.14 K, 5000 kPa, x2 = 0.952	666.98
323.14 K, 6000 kPa, x2 = 0.5219	691.82
323.14 K, 6000 kPa, x2 = 0.952	668.05
323.14 K, 7000 kPa, x2 = 0.5219	692.78
323.14 K, 7000 kPa, x2 = 0.952	669.1
323.14 K, 8000 kPa, x2 = 0.5219	693.71
323.14 K, 8000 kPa, x2 = 0.952	670.14
323.14 K, 9000 kPa, x2 = 0.5219	694.65
323.14 K, 9000 kPa, x2 = 0.952	671.16
323.14 K, 10000 kPa, x2 = 0.5219	695.58
323.14 K, 10000 kPa, x2 = 0.952	672.17
323.14 K, 10990 kPa, x2 = 0.5219	696.5
323.14 K, 10990 kPa, x2 = 0.952	673.16
323.14 K, 12000 kPa, x2 = 0.5219	697.4
323.14 K, 12000 kPa, x2 = 0.952	674.14
323.14 K, 13000 kPa, x2 = 0.5219	698.29
323.14 K, 13000 kPa, x2 = 0.952	675.1
323.14 K, 14000 kPa, x2 = 0.5219	699.17
323.14 K, 14000 kPa, x2 = 0.952	676.05
323.14 K, 15000 kPa, x2 = 0.5219	700.04
323.14 K, 15000 kPa, x2 = 0.952	676.99
323.14 K, 16000 kPa, x2 = 0.5219	700.9
323.14 K, 16000 kPa, x2 = 0.952	677.91
323.14 K, 17000 kPa, x2 = 0.5219	701.74
323.14 K, 17000 kPa, x2 = 0.952	678.82
323.14 K, 18000 kPa, x2 = 0.5219	702.6
323.14 K, 18000 kPa, x2 = 0.952	679.71
323.14 K, 19000 kPa, x2 = 0.5219	703.38
323.14 K, 19000 kPa, x2 = 0.952	680.59
323.14 K, 20000 kPa, x2 = 0.5219	704.18
323.14 K, 20000 kPa, x2 = 0.952	681.45
323.14 K, 21000 kPa, x2 = 0.5219	704.97
323.14 K, 21000 kPa, x2 = 0.952	682.3
323.14 K, 22000 kPa, x2 = 0.5219	705.7
323.14 K, 22000 kPa, x2 = 0.952	683.13
323.14 K, 23000 kPa, x2 = 0.5219	706.43
323.14 K, 23000 kPa, x2 = 0.952	683.92
323.14 K, 24000 kPa, x2 = 0.5219	707.14
323.14 K, 24000 kPa, x2 = 0.952	684.73
323.14 K, 25000 kPa, x2 = 0.5219	707.83
323.14 K, 25000 kPa, x2 = 0.952	685.51
323.15 K, 1000 kPa, x2 = 0.0531	705.96
323.15 K, 1000 kPa, x2 = 0.2594	698.56
323.15 K, 2000 kPa, x2 = 0.0531	706.92
323.15 K, 2000 kPa, x2 = 0.2594	699.45
323.15 K, 3000 kPa, x2 = 0.0531	707.86
323.15 K, 3000 kPa, x2 = 0.2594	700.3
323.15 K, 4000 kPa, x2 = 0.0531	708.79
323.15 K, 4000 kPa, x2 = 0.2594	701.18
323.15 K, 5000 kPa, x2 = 0.0531	709.69
323.15 K, 5000 kPa, x2 = 0.2594	702.06
323.15 K, 6000 kPa, x2 = 0.0531	710.58
323.15 K, 6000 kPa, x2 = 0.2594	702.96

Reference: the NIST ThermoML archive (doi:10.1016/j.jct.2011.08.016)
